Data: patent US20220177891A1, “HIPK INHIBITORS AND METHODS OF USE THEREOF” (Board of Regents, The University of Texas System, priority 2019, published 2022)

Tests used:
[1] = test system: MDA-MB-231 cells overexpressing HIPK4; experiment: Transwell migration of HIPK4-overexpressing MDA-MB-231 cells (FIG. 11A); assay type: cell-based, human; conditions: MDA-MB-231 cells overexpressing HIPK4, FIG. 11A
Description: The in vitro migration and invasion assay was carried out using transwell chamber. Briefly, 0.2-2.0×10^5 cells/ml cells were suspended in serum-free medium with 5% bovine serum albumin and then were placed in the upper compartment, and medium with 5% fetal bovine serum was added in the lower compartment. Following incubation in cell culture incubator for 6-32 h, non-migratory and noninvasive cells on the upper surface were gently removed by a cotton swab. The cells on the bottom of membrane were stained with cell stain solution at room temperature for 10 min. Images of the invading cells were taken with at least three individual fields per chamber by a fluorescent inverted microscope (Olympus IX81 Motorized Inverted Microscope, Japan). The chambers were transferred to an empty well, and 200 μL of Extraction Solution was added to each well. After incubating 10 minutes on an orbital shaker, 100 μL of solution was transferred from each well to a 96-well microtiter plate for measurement under OD 560 nm in a plate reader.
(§1) Cells were plated into 6-well plate and grown for 1-2 days until reaching 70-80% confluence. Transfection of cells with HIPK4 cDNA was performed utilizing FuGENE® HD Transfection reagent. An amount of 2.5 μg of DNA and 7.5 μL of FuGENE® HD reagent were separately pipeted into 140 μL opti-MEM medium; incubate the FuGENE® HD transfection reagent/DNA mixture for 10-15 minutes at room temperature. Then the mixture was applied onto cells for 7 h in cell culture incubator. The transfection was stopped by replacing medium with complete medium. After 48 h, cells were harvest for further analysis.

HIPK4 [2] = molecular target: T1, HIPK4 (Homo sapiens, UniProt Q8NE63); experiment: Western blot of HIPK4 protein level with VIB-MDA compounds (FIG. 9); assay type: cell-based; set-up: endogenous in cells; context is GI101A and derivative cell lines
T1 sequence (Q8NE63 1-616): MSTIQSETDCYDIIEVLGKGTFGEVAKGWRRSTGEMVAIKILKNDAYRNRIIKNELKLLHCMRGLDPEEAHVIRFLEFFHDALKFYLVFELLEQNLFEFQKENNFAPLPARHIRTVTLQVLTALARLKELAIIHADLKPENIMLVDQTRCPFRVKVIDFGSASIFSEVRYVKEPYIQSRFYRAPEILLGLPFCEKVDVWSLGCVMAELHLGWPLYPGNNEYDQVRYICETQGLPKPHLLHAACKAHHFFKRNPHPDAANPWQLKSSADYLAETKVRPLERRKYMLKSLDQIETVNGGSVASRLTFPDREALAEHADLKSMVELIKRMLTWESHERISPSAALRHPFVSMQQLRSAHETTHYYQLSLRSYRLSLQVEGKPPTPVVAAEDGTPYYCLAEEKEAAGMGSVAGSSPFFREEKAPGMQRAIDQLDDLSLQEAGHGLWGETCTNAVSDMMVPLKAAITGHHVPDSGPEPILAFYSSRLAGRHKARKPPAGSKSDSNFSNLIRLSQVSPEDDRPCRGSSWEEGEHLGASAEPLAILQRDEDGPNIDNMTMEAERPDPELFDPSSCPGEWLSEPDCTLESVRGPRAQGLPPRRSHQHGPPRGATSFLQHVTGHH
Description: (§2) Briefly, desired cells were harvested and lysed. The protein concentration in the lysates was quantified using the Bradford method with bovine serum albumin as standard. An equal amount of protein of 49 μg was separated by electrophoresis on SDS-polyacrylamide gels and transferred to PVDF membranes. After blocking with 5% nonfat milk, the membranes were incubated with the primary antibodies overnight at the following dilution: HIPK4 (1:500) and β-actin (1:20000). Subsequently, the membranes were incubated with appropriate secondary antibodies. The immunoreactive bands were visualized using enhanced chemiluminescence, as recommended by the manufacturer.

HIPK4 [3] = molecular target: T1, HIPK4; experiment: HIPK4 kinase inhibition by VIB-MDA compounds (FIG. 5, 6); assay type: biochemical; conditions: for potency and specificity for HIPK4: Table 1, FIG. 5
HIPK and FAK/pFAK = experiment: Western blot of HIPK4-overexpressing triple negative breast cancer cells (FIG. 11B); assay type: cell-based, human
Description: as §1, §2

DDR2 (Tyro10) = molecular target: T2, DDR2 (Tyro10) (Homo sapiens, UniProt Q16832); experiment: DDR2 kinase inhibition by VIB-MDA compounds (FIG. 5, 6B); assay type: biochemical
T2 sequence (Q16832 22-855): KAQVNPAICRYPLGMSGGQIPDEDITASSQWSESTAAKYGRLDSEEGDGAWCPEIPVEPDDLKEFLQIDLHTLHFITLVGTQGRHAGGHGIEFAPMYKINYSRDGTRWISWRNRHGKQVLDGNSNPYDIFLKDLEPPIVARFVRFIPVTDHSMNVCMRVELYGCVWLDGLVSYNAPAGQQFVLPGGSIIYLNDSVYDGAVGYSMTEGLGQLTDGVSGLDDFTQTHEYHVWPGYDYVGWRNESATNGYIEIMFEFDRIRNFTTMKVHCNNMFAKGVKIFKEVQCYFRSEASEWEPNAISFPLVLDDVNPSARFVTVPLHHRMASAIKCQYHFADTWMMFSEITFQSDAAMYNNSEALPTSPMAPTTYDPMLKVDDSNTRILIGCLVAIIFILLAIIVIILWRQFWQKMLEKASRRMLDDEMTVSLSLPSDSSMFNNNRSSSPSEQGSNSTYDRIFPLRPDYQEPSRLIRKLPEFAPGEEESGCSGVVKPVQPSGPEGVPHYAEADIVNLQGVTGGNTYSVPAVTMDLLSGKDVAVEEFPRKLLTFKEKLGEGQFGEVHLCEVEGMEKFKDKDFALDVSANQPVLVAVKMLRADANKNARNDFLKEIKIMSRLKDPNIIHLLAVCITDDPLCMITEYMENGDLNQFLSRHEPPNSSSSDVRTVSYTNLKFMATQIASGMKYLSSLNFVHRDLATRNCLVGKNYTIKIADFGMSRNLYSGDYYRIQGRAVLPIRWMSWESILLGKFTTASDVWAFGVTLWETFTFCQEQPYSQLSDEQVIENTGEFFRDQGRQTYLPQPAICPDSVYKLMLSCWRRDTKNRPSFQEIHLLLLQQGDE

Tyro3 = molecular target: T3, Tyro3 (Homo sapiens, UniProt Q06418); experiment: Tyro3 kinase inhibition (FIG. 5); assay type: biochemical
T3 sequence (Q06418 41-890): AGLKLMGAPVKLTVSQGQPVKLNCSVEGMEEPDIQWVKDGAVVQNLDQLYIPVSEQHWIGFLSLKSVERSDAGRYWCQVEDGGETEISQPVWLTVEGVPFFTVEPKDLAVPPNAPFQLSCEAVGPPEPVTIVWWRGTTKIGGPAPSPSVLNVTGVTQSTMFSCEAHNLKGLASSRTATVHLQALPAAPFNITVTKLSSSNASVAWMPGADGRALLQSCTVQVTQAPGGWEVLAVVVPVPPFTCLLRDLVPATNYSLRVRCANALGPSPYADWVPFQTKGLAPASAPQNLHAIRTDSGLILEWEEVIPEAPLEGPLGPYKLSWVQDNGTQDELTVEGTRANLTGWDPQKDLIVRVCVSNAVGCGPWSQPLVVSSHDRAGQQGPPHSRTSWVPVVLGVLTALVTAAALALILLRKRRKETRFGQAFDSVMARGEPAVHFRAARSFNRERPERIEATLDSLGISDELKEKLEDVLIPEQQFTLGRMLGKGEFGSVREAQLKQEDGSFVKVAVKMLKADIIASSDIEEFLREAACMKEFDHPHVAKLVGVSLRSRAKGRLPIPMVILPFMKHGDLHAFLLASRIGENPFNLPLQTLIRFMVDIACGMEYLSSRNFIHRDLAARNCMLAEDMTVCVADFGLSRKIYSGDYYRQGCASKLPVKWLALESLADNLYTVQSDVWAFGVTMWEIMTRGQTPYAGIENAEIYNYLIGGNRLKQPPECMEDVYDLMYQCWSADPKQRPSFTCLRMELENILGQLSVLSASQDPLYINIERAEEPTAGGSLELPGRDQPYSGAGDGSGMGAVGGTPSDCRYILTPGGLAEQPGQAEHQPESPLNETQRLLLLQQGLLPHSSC

[4] = molecular target: Breast Tumor Kinase (BRK) (Homo sapiens, UniProt Q13882); experiment: Breast Tumor Kinase inhibition (FIG. 5); assay type: biochemical
Breast Tumor Kinase (BRK), sequence (Q13882 whole entry, species assumed): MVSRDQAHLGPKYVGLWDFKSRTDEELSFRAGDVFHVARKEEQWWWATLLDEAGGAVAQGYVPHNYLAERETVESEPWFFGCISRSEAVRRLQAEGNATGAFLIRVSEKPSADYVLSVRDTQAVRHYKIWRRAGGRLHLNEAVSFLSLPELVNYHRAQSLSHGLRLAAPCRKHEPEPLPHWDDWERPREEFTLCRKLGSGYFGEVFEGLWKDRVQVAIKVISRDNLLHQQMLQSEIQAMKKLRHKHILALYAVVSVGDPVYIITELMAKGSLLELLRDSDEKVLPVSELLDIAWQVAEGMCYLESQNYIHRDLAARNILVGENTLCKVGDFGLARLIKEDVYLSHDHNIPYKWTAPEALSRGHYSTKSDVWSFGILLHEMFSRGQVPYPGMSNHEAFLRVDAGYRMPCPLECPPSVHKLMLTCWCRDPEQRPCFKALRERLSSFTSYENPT

Transport into cells = assay type: cell-based

SMILES | migration from HIPK-overexpression [1] | inhibition of HIPK4 expression (HIPK4 [2]) | potency and specificity for HIPK4 (HIPK4 [3]) | expression of HIPK and FAK/pFAK (HIPK and FAK/pFAK) | potency for DDR2 relative to the other VIB-MDA compounds (DDR2 (Tyro10); FIG. 5) | IC50 (DDR2 (Tyro10); FIG. 6B, second most inhibited kinase) | potency for HIPK4 relative to the other VIB-MDA compounds (HIPK4 [3]; FIG. 5) | blocking HIPK4 kinase activity (HIPK4 [3]; FIG. 6) | IC50 (HIPK4 [3]; FIG. 6B) | specificity for HIPK4 compared to Sorafenib (HIPK4 [3]; kinase inhibition profile, FIG. 6A) | potency for Tyro3 relative to the other VIB-MDA compounds (Tyro3) | potency for BRK relative to the other VIB-MDA compounds [4] | transport into cells (Transport into cells)
CNC(=O)c1cc(Oc2ccc(NC(=O)c3nc(S(C)(=O)=O)sc3-c3ccc(F)cc3)cc2)ccn1 [VIB-MDA-003] | significantly inhibit | Selective inhibition | extremely potent and highly specific for HIPK4 | significantly inhibit | – | – | – | – | – | – | – | – | –
CNC(=O)c1cc(Oc2ccc(NC(=O)c3nc(SC)[nH]c3-c3ccc(F)cc3)cc2)ccn1 [VIB-MDA-001] | significantly inhibit | Selective inhibition | extremely potent and highly specific for HIPK4 | significantly inhibit | – | – | – | – | – | – | – | – | –
CNC(=O)c1cc(Oc2ccc(NC(=O)c3nc(SC)oc3-c3ccc(F)cc3)cc2)ccn1 [VIB-MDA-002] | significantly inhibit | Selective inhibition | extremely potent and highly specific for HIPK4 | significantly inhibit | highest potency | 100 nM | highest potency | high efficacy | 15 nM | greatly increased specificity | highest potency | highest potency | excellent transport into cells
